Reference: patent US20230357354A1, “CD38-BINDING CD31 PEPTIDES AND USES THEREOF” (ENCEFA, priority 2020, published 2023)
Bridge positions count the residues as written; N and C are the ends. Ends that are not written are not given here. Peptide text beside a SMILES is read from it.

test system: human Daudi cells; assay: not given; assay type: cell-based; conditions: 1 h

Compound	EC50 [nM]
CC[C@H](C)[C@@H]1NC(=O)[C@H](C(C)C)NC(=O)[C@H](Cc2ccccc2)NC(=O)[C@H](CC(N)=O)NC(=O)[C@H](CCC(N)=O)NC(=O)[C@H](CC(=O)O)NC(=O)[C@H](CCCNC(=N)N)NC(=O)[C@@H](N)CSSC[C@@H](C(=O)O)NC(=O)[C@H](CCC(N)=O)NC(=O)[C@H](CCC(=O)O)NC(=O)[C@H](CCC(=O)O)NC(=O)[C@H](C(C)C)NC(=O)[C@@H]2CCCN2C(=O)[C@H](Cc2ccccc2)NC(=O)[C@H](CCC(=O)O)NC(=O)[C@H](CC(C)C)NC1=O [SEQ ID NO: 9] (H-CRDQNFVILEFPVEEQC-OH; disulfide 1-17 (inferred); N-terminus and C-terminus assumed)	~0.1
NSRDQNFVILEFPVE [SEQ ID NO: 6]	~13

same assay, conditions: dose response, 2-NBDG fluorescence; read-out: EC50 on glucose uptake

Compound	EC50 [nM]
human sCD31: soluble form of human CD31, amino acid residues 35 to 493 of SEQ ID NO: 1	~5

test system: DSS mouse model; assay: DSS-induced colitis mouse model, colon length; assay type: in vivo, mice; conditions: 300 µg/kg s.c. daily from start of DSS; 3% DSS 5 days, sacrifice day 9
Description: (§1) Experimental colitis was induced in mice by giving drinking water ad libitum containing 3 % (w/v) DSS for 5 days, while control mice received tap water only. Test compounds were intravenously administered (15 mg/kg) when DSS treatment began. Mice were sacrificed 9 days after the beginning of DSS treatment.
Administration of DSS causes human ulcerative colitis-like pathologies due to its toxicity to colonic epithelial cells, which results in compromised mucosal barrier function. Clinical observations similar to human pathologies, such as weight loss, diarrhea and occult blood in stool, are commonly observed in the DSS model. Moreover, diminution of the colon’s length is characteristic of this model.
as §1, with “3%” for “3 %”, “compounds (SEQ ID NO: 6 and SEQ ID NO: 10)” for “compounds”, “subcutaneously” for “intravenously”, “everyday (300 µg/kg) starting” for “(15 mg/kg)”

Compound	colon length
NSRDQNFVILEFPVE [SEQ ID NO: 6]	statistically significant improvement in colon length

same assay, conditions: same dosing regimen, 300 µg/kg s.c. daily

Compound	potency on colon length compared with SEQ ID NO: 10
NSRDQNFVILEFPVE [SEQ ID NO: 6]	less potent than SEQ ID NO: 10

test system: human Daudi cells; assay: not given; assay type: cell-based; conditions: glucose-deprived cells, 1 hour treatment (1 µM per figure legends; 10 µg/mL per method), 2-NBDG 500 µM 30 minutes
Description: Human Daudi cells cultured in 75 cm^2 flask were centrifuged ( 300 g, 3 minutes), resuspended in warmed PBS supplemented with 10 % goat serum and seeded in 96-well microplate ( 100 µL, 2 × 10^6 cells/mL) in order to deprive cells from glucose. Cells were treated with test treatments (10 µg/mL) for 1 hour (37° C.). Cells were then incubated with 500 µM of the fluorescent and non-metabolizable glucose analog 2-NBDG ((2R,3R,4S,5R)-3,4,5,6-tetrahydroxy-2-[(7-nitro-2,1,3-benzoxadiazol-4-yl)amino]hexanal; Thermo Fischer) for 30 minutes at 37° C., and washed 4 times with PBS containing 10 % of goat serum. Images were acquired using a Zeiss microscope (20 X) and the relative fluorescence intensity of 30 cells was determined using Fiji.
To determine the effect of test compounds on glucose uptake, we developed a cellular model based on the use of human Daudi cells, a cell line known to strongly express CD38.
Human Daudi cells were plated in culture medium deprived of glucose and exposed to test treatments (peptides of Table 6) for 1 hour and then incubated with the non-metabolizable, fluorescent glucose 2-NBDG. After 30 minutes of incubation, cells were washed and imaged using a microscope. Fluorescence levels were determined using Fiji.

Compound	glucose uptake (2-NBDG fluorescence)
NFVFLEFP [SEQ ID NO: 311]	still active
NFVHLEFP [SEQ ID NO: 314]	impact the glucose uptake-increasing activity of the peptide
NFVIAEFP [SEQ ID NO: 297]	slightly decreased the activity of the peptide, although it remained overall active
NFVIDEFP [SEQ ID NO: 319]	impact the glucose uptake-increasing activity of the peptide
NFVIFEFP [SEQ ID NO: 317]	increased glucose uptake, even more efficiently than SEQ ID NO: 297
NFVIHEFP [SEQ ID NO: 318]	impact the glucose uptake-increasing activity of the peptide
NFVITEFP [SEQ ID NO: 316]	impact the glucose uptake-increasing activity of the peptide
NFVQLEFP [SEQ ID NO: 313]	still active
NFVTLEFP [SEQ ID NO: 312]	still active
NHVILEFP [SEQ ID NO: 309]	impact the glucose uptake-increasing activity of the peptide
NSMLIEFT [SEQ ID NO: 320]	still able to increase glucose uptake
NSVILEFP [SEQ ID NO: 308]	keep glucose uptake-increasing activity
NWVILEFP [SEQ ID NO: 306]	still increase glucose uptake
NYVILEFP [SEQ ID NO: 305]	still increase glucose uptake
QFVILEFP [SEQ ID NO: 301]	still increase glucose uptake
SFVILEFP [SEQ ID NO: 302]	still increase glucose uptake, although to a lesser extent
TFVILEFP [SEQ ID NO: 303]	still increase glucose uptake, although to a lesser extent
human sCD31: soluble form of human CD31, amino acid residues 35 to 493 of SEQ ID NO: 1	increased glucose uptake to similar levels to that observed in the presence of insulin

same assay, conditions: parent SEQ ID NO: 6 (deletions) or SEQ ID NO: 8 (alanine scanning); 2-NBDG fluorescence

Compound	effect of the C-terminal deletion or alanine substitution (relative to the parent peptide) on glucose uptake
NFVILAFP [SEQ ID NO: 298]	had no effect on glucose uptake
NFVILEAP [SEQ ID NO: 299]	had no effect on glucose uptake
NFVILEFA [SEQ ID NO: 300]	had no effect on glucose uptake

test system: dopaminergic (TH^+) neurons in midbrain cultures; assay: MPP+ intoxication model: DA (TH+) cell survival in midbrain cultures; assay type: cell-based, Wistar rat; conditions: MPP^+ in vitro model; antibodies 1 µg/mL, genistein 10 nM, vacuolin-1 10 µM, endosidin2 40 µM
Description: Animals were treated in accordance with the Guide for the Care and Use of Laboratory Animals (National Research Council, 1996), European Directive 86/609, and the guidelines of the local institutional animal care and use committee. Cultures were prepared from the ventral mesencephalon of gestational age 15.5 Wistar rat embryos (Janvier Breeding Center, Le Genest St Isle, France). Dissociated cells in suspension obtained by mechanical trituration of midbrain tissue pieces were seeded at a density of 1.2-1.5×10^5 cells/cm^2 onto tissue culture supports precoated with 1 mg/mL polyethylenimine diluted in borate buffer pH 8.3 as described (Michel et al., 1997. J Neurochem. 69(4):1499-507). The cultures were then maintained in N5 medium supplemented with 5 mM glucose, 5 % horse serum, and 0.5 % fetal calf serum, except for the first 3 DIV, when the concentration of fetal calf serum was 2.5% to favor initial maturation of the cultures (Guerreiro et al., 2008. Mol Pharmacol. 74(4):980-9). They were fed daily by replacing 70% of the medium. Routinely, mesencephalic cultures were established on Nunc 24-well culture plates (Thermofischer Scientific, Rochester, NY). Note that these cultures contain tyrosine hydroxylase (TH)^+ neurons that were exclusively dopaminergic (Traver et al., 2006. Mol Pharmacol. 70(1):30-40). TH^+ neurons represented approximately 1-2% of the total number of neuronal cells present in these cultures. The evaluation of the survival of DA neurons was performed by counting cells immunopositive for TH as described (Toulorge et al., 2011. Faseb J. 25(8):2563-73).
Treatments with MPP^+ were performed in cultures where the spontaneous death process was prevented by long-term exposure to depolarizing concentrations of K^+ (30 mM), in the presence of the glutamate receptor antagonist MK801 (5 µM) to prevent unwanted excitotoxic insults as described previously (Douhou et al., 2001. J Neurochem. 78(1):163-74). Treatments with MPP^+ and potential neuroprotective molecules were carried out between 5 and 7 DIV.
The cultures were fixed for 12 min using 4 % formaldehyde in Dulbecco’s phosphate-buffered saline (PBS), then washed twice with PBS before an incubation step at 4° C. for 24 hours with the following antibodies. A monoclonal anti-TH antibody diluted 1/5000 (ImmunoStar, Inc., Hudson, WI) was used to assess the survival of DA neurons. Antibody was diluted in PBS containing 0.2 % Triton X-100. Detection of the primary antibodies was performed with an Alexa Fluor-488 conjugate of an anti-mouse IgG antibody.
For this purpose, spontaneously occurring DA cell death was prevented by a treatment combining depolarizing concentrations of K^+ (30 mM) and MK801 (5 µM), a glutamate receptor antagonist used to prevent unwanted excitotoxic insult. The cultures were then exposed to 3 µM MPP^+ between 5 and 7 days in vitro (DIV) to achieve a loss of approximately 50% of DA neurons.

Compound	effect on the neuroprotective effect of agonistic anti-CD38 antibody clone HB7 (1 µg/mL)	effect on the neuroprotective effect of sCD31 (1 µg/mL)
COc1cc(/C=N/NC(=O)c2cccc(F)c2)cc(I)c1O [endosidin2]	antagonized	antagonized
O=c1c(-c2ccc(O)cc2)coc2cc(O)cc(O)c12 [genistein]	antagonized	antagonized
Ic1cccc(/C=N/Nc2nc(N3CCOCC3)nc(N(c3ccccc3)c3ccccc3)n2)c1 [vacuolin-1]	antagonized	antagonized
